Where two headings read alike, the source gives them in different places.
How the values were obtained:
NCI-H69 cells [1] = test: FACS-based (DRAQ7) viability assay; format: cell-based, human
Method: […] Etoposide, SB203580 and MK2.III were all dissolved in 0.2% of DMSO before use. Cells treated only with the carrier molecule DMSO (0.2%) served as a control.
Viability analysis was performed by staining with the […], stoichiometric DNA stain DRAQ7 (640 or 633 nm excitation and 670 nm emission; Biostatus Limited). After 48-h treatment with DNA damaging agents and/or inhibitors, cells were washed once with RPMI 1640 and resuspended in 1 ml culture media at a concentration of less than 5 × 10^5/ ml. Cells were stained with 20 µM of DRAQ7 and incubated at 37 °C for 10 min before FACS Calibur cytometer analysis. Fluorescent signals were amplified using linear mode. Cell cycle analysis was performed either by staining DRAQ7 or Propidium Iodide (PI). Cells were stained with 20 µM of DRAQ7 and incubated at 37 °C for 10 min before analysis on a FACSCalibur cytometer. Propidium Iodide (PI, excited with 488 nm laser, collected with 585/52 bandpass filter) was used in the large-scale experiments. Samples were then fixed with 70% EtOH following the viability assay and stored at 4 °C overnight before the experiment. After fixation with 70% EtOH (added drop-wise) for 24 h, samples were centrifuged into the pellet and then washed twice with ice-cold PBS. The supernatant was discarded and pellets were resuspended in 100 µl of RNase A (100 µg/ml) and 400 µl of PI ([…] in PBS). Analysis of flow cytometry data was performed using FlowJo software. Untreated, unstained cells were used as a negative control to determine the location of viable cells on the dot plots. Events below a threshold size were interpreted as cellular debris and were removed from the dataset, leaving a whole cell population.

[2] = test system: MDA-MB-231 breast cancer cell line; test: CCK8 cell viability assay, MDA-MB-231; format: cell-based, human; conditions: MK2.III 1 µM or etoposide 150 µM alone, 24 h
Method: (§1) To assess the effect of MK2.III kinase inhibitor and the etoposide (VP-16) on the viability of different cancer cell lines, cells were seeded in 96-well plates in a concentration of 5000 cells per well. After 12 h, etoposide and 1 μM MK2.III diluted in culture media were added into the wells for 24 h. NCI-H69 cells were exposed to a series of etoposide concentrations from 20 μM to 150 μM. MDA-MB-231, SW 620, and SW 480 cell lines were incubated with 150 μM etoposide. After treatment, 10 μL of the CCK-8 reagent (96992, Sigma) was added to each well for 1 h followed by optical density measurement at 450 nm using hybrid plate reader Synergy H1.

NCI-H69 cells [3] = test: FACS-based cell cycle analysis; set-up: species or system human; conditions: single treatment, increasing dose
Method: The cells were grown in 12 well plates (Scientific Laboratory Supplies Limited, UK) in RPMI 1640 (Gibco, UK) supplemented with 10% FBS (Autogen Bioclear, UK) and 10,000 U/ml penicillin and 10 mg/ml streptomycin (Sigma, UK) at 37 °C under 5% CO2 and treated with 10, 20, 50, 100 and 150 µM of DNA damaging agent etoposide (VP-16) (Sigma, UK) in the presence or absence of p38MAPK inhibitor SB203580 (Tocris Chemical Co., UK) or MK2 inhibitor MK2.III (Merck, UK) in concentrations of 0, 0.3125, 0.625, 1.25, 2.5, and 5.0 µM. Etoposide, SB203580 and MK2.III were all dissolved in 0.2% of DMSO before use. Cells treated only with the carrier molecule DMSO (0.2%) served as a control.
Viability analysis was performed by staining with the […], stoichiometric DNA stain DRAQ7 (640 or 633 nm excitation and 670 nm emission; Biostatus Limited). After 48-h treatment with DNA damaging agents and/or inhibitors, cells were washed once with RPMI 1640 and resuspended in 1 ml culture media at a concentration of less than 5 × 10^5/ ml. Cells were stained with 20 µM of DRAQ7 and incubated at 37 °C for 10 min before FACS Calibur cytometer analysis. Fluorescent signals were amplified using linear mode. Cell cycle analysis was performed either by staining DRAQ7 or Propidium Iodide (PI). Cells were stained with 20 µM of DRAQ7 and incubated at 37 °C for 10 min before analysis on a FACSCalibur cytometer. […]

[4] = test system: SW620 colorectal cancer cell line; test: CCK8 cell viability assay, SW620; format: cell-based, human; conditions: MK2.III 1 µM or etoposide 150 µM alone, 24 h
Method: as §1

NCI-H69 cells [5] = test: CCK8-based cell viability assay, NCI-H69; set-up: species or system human; conditions: 24 h
Method: as §1

[6] = test system: SW480 colorectal cancer cell line; test: CCK8 cell viability assay, SW480; format: cell-based, human; conditions: etoposide 150 µM alone, 24 h
Method: as §1

NCI-H69 xenograft = test: Tumor (xenograft) suppression with combination chemotherapy in SCID mice; format: in vivo; conditions: for Tumor Volume (mm^3) median (25th and 75th quartile): VP-16 12 mg/kg
Method: To establish the most suitable xenograft model for the main experiment we used two mouse lines – BALB/c Nude and SCID (both female, 6 weeks, n = 20, Charles River). Both mouse lines were injected with NCI-H69 cancer cells (xenograft). Before injection, cells were grown at 37 °C in RPMI-1640 medium containing 10% FBS and pen/strep. Cells were mixed with Matrigel (1:1) and depending on the group 5 × 10^6 or 10 × 10^6 cells were injected into a mouse subcutaneously along the spine to the level of the left scapula. Mice were divided into 4 groups: (1) 5 × 10^6 NCI-H69 SCID (n = 5); (2) 5 × 10^6 NCI-H69 Nude (n = 5); (3) 10 × 10^6 NCI-H69 SCID (n = 5); and (4) 10 × 10^6 NCI-H69 Nude (n = 5).
The main experiment (injection of the drugs) took place after the tumor growth was established. The tumor growth in mice following the injection of cells was monitored twice a week and upon reaching the volume of ~ 100 mm^3, animals were randomized into 5 groups (12 female SCID mice in each group). The drug treatment was performed as follows: the first group was a control and received a placebo in the form of PBS (tumor volume 95 ± 38 mm^3); the second group received 12 mg/kg of Etoposide (tumor volume 101 ± 51 mm^3); the third group was injected with 4 mg/kg of MK2.III (tumor volume 105 ± 44 mm^3); fourth and fifth groups were injected with 12 mg/kg of Etoposide and 4 mg/kg or 2 mg/kg of MK2.III (tumor volumes 112 ± 57 and 107 ± 49 mm^3 respectively). Drugs were injected intraperitoneally daily. Etoposide was injected 3 days after the randomization into groups and MK2.III was administered for 28 days. Tumor growth/suppression was measured using calipers every 3–4 days for the duration of the 28-day treatment and the tumor volume was calculated as follows:[…],
Antitumor properties of drugs in the test group were determined based on the slowing of the tumor growth or tumor volume compared with the control group receiving PBS. Animal welfare was monitored throughout the study period to ensure that animals in distress were euthanized by carbon dioxide asphyxiation. All the animals were also euthanized by carbon dioxide asphyxiation following the completion of the study.
Descriptive statistics were used to summarize the tumor size and data reported as medians and 25th and 75th quartiles. Wilcoxon sum rank test was used to investigate the effects of the treatments on tumor growth. […] Statistical analyses were performed on the SigmaPlot 11.0 software.

Compound C[S+]([O-])c1ccc(-c2nc(-c3ccncc3)c(-c3ccc(F)cc3)[nH]2)cc1 (stereo not shown) [SB203580] has a viability at 0.321 µM (NCI-H69 cells [1]; Homo sapiens, NCI-H69, Table 1 dose response, agent alone 0.321 µM (lowest dose), 48 h, read-out: Viable cells (%)) of 89%, a viability at 0.626 µM (NCI-H69 cells [1]; Homo sapiens, NCI-H69, Table 1 dose response, agent alone 0.626 µM, 48 h, read-out: Viable cells (%)) of 89.8% and a viability at 1.25 µM (NCI-H69 cells [1]; Homo sapiens, NCI-H69, Table 1 dose response, agent alone 1.25 µM, 48 h, read-out: Viable cells (%)) of 89%. The viability at 2.5 µM (NCI-H69 cells [1]; Homo sapiens, NCI-H69, Table 1 dose response, agent alone 2.5 µM, 48 h, read-out: Viable cells (%)) was 89.4%, the viability at 5 µM (NCI-H69 cells [1]; Homo sapiens, NCI-H69, Table 1 dose response, agent alone 5.0 µM (highest dose), 48 h, read-out: Viable cells (%)) was 85.1% and the “Effect on NCI-H69 cell viability compared to the DMSO control” value (NCI-H69 cells [1]; inhibitor alone at 2.5 µM) was “did not affect”.

With COc1cc([C@@H]2c3cc4c(cc3[C@@H](O[C@@H]3O[C@@H]5CO[C@@H](C)O[C@H]5[C@H](O)[C@H]3O)[C@H]3COC(=O)[C@H]23)OCO4)cc(OC)c1O [VP-16 (Etoposide), etoposide] the “Effect of single agent on viability” value [2] was “did not affect the viability”, the “Effect on cell cycle profile, single agent” value (NCI-H69 cells [3]) was “G2 cell cycle arrest” and the “Decrease of viability by single agent” value [4] was 50%. For the same compound, the “Percentage of surviving cells” value (NCI-H69 cells [5]; etoposide 20 µM) was 72%, the “Percentage of surviving cells” value (NCI-H69 cells [5]; etoposide 150 µM) was 36% and the “Decrease of viability by single agent” value [6] was 65%. It also gave a viability at 10 µM (NCI-H69 cells [1]; Homo sapiens, NCI-H69, Table 1 dose response, agent alone 10 µM, 48 h, read-out: Viable cells (%)) of 75.7%, a viability at 20 µM (NCI-H69 cells [1]; Homo sapiens, NCI-H69, Table 1 dose response, agent alone 20 µM, 48 h, read-out: Viable cells (%)) of 76.8% and a viability at 50 µM (NCI-H69 cells [1]; Homo sapiens, NCI-H69, Table 1 dose response, agent alone 50 µM, 48 h, read-out: Viable cells (%)) of 65.2%. The viability at 100 µM (NCI-H69 cells [1]; Homo sapiens, NCI-H69, Table 1 dose response, agent alone 100 µM, 48 h, read-out: Viable cells (%)) was 61.3%, the viability at 150 µM (NCI-H69 cells [1]; Homo sapiens, NCI-H69, Table 1 dose response, agent alone 150 µM, 48 h, read-out: Viable cells (%)) was 55.4% and the viability at 20 µM (NCI-H69 cells [1]; Homo sapiens, NCI-H69, Table 2, VP-16 20 µM, alone or with MK2.III 1.0 µM or SB203580 2.5 µM, read-out: Viable cells (%)) was 57.3%. It also gave a viability at 50 µM (NCI-H69 cells [1]; Homo sapiens, NCI-H69, Table 2, VP-16 50 µM, alone or with MK2.III 1.0 µM or SB203580 2.5 µM, read-out: Viable cells (%)) of 46.4%, a viability at 100 µM (NCI-H69 cells [1]; Homo sapiens, NCI-H69, Table 2, VP-16 100 µM, alone or with MK2.III 1.0 µM or SB203580 2.5 µM, read-out: Viable cells (%)) of 45.4% and a viability at 150 µM (NCI-H69 cells [1]; Homo sapiens, NCI-H69, Table 2, VP-16 150 µM, alone or with MK2.III 1.0 µM or SB203580 2.5 µM, read-out: Viable cells (%)) of 37.5%. The “Difference in tumor size versus control” value (NCI-H69 xenograft; at any checkpoint, etoposide 12 mg/kg, MK2.III 4 mg/kg, or etoposide + MK2.III 2 mg/kg) was “no significant difference”, the “Tumor Volume (mm^3) median (25th and 75th quartile)” value (shortened to “Tumor Volume (mm^3) median”) (NCI-H69 xenograft; day 11 upon treatment, MK2.III 4 mg/kg IP daily) was 556(360;839) mm^3 and the “Tumor Volume (mm^3) median” value (NCI-H69 xenograft; day 18 upon treatment, MK2.III 4 mg/kg IP daily) was 1219 (995;1387)^*** mm^3. For the same compound, the “Tumor Volume (mm^3) median” value (NCI-H69 xenograft; day -1 upon treatment (baseline), MK2.III 4 mg/kg IP) was 93.5 (66;125) mm^3.

From article PMC10517462, “Small molecule targeting of the p38/Mk2 stress signaling pathways to improve cancer treatment” (BMC Cancer, 2023)
